Data set [1] can be described thus: Enzymatic degradation study: proteolytic stability on incubation with chymotrypsin (HPLC, LCMS). It counts as in vitro ADME. To be noted: chymotrypsin (isolated protease) in Tris buffer, pH 7.5; up to 24 h; HPLC and MS analysis; read-out: cleavage observed in the presence of chymotrypsin.
In data set [2] the target is chymotrypsin (Bos taurus, UniProt P00766). The description is as above. It counts as in vitro ADME. The note with it: for remaining at 5 min, 1.5 mM / remaining at 0.25 h, 1.5 mM / remaining at 0.5 h, 1.5 mM / remaining at 0.75 h, 1.5 mM / remaining at 1 h, 1.5 mM / remaining at 1.5 h, 1.5 mM / remaining at 2 h, 1.5 mM / remaining at 8 h, 1.5 mM: chymotrypsin (isolated protease) in Tris buffer, read-out: enzyme degradation studies, peptide at time point; for remaining at 5 min, 1.5 mM / remaining at 0.25 h, 1.5 mM / remaining at 0.5 h, 1.5 mM / remaining at 0.75 h, 1.5 mM / remaining at 1 h, 1.5 mM / remaining at 1.5 h, 1.5 mM / remaining at 2 h, 1.5 mM / remaining at 8 h, 1.5 mM / enzyme degradation studies, peptide at time point: chymotrypsin, 10 mM Tris buffer pH 7.5, peptide 1.5 mM; for remaining at 0.25 h, 1.5 mM: time 15 min; for remaining at 0.5 h, 1.5 mM: time 30 min; for remaining at 0.75 h, 1.5 mM: time 45 min; for remaining at 1 h, 1.5 mM: time 60 min; for remaining at 1.5 h, 1.5 mM: time 90 min; for remaining at 2 h, 1.5 mM: time 120 min; for remaining at 8 h, 1.5 mM: time 480 min; for enzyme degradation studies, peptide at time point: time 0 min. On the procedure: FIG. 25, comprising FIG. 25A through FIG. 25C, depicts representative enzymatic Degradation Studies. Linear peptide AVGPFEY (SEQ ID NO: 13) and cyclic peptide cyc(AVGPFEY) (SEQ ID NO: 13) 2a were individually dissolved in 10 mM Tris buffer pH 7.5 (final conc. 1.5 mM). A chymotrypsin stock solution was created by the addition of 1 mg chymotrypsin in 100 μL CaCl2 (0.01 M), 100 μL tris buffer (0.1 M pH 7.5), 100 μL HCl (1 mM). 10 μL of the chymotrypsin stock solution was added to both linear peptide AVGPFEY (SEQ ID NO: 13) and cyclic peptide cyc(AVGPFEY) (SEQ ID NO: 13) 2a solutions. Samples (100 μL) were taken after regular intervals of time from both linear and cyclic peptide solutions. 100 μL of each sample was quenched with 400 μL of frozen water and solutions were frozen at −80° C. at the following time intervals: 0 min, 5 min, 15 min, 30 min, 45 min, 60 min, 90 min, 120 min, and 480 min. Each sample was lyophilized and analyzed using HPLC and LCMS. FIG. 25A depicts a schematic representation of the enzyme degradation of cyclic peptide cyc(AVGPFEY) (SEQ ID NO: 13) 2a. FIG. 25B depicts a schematic representation of the enzyme degradation of linear peptide 1a. FIG. 25C depicts representative HPLC data of various time aliquots of the enzyme degradation of linear peptide 1a.
To evaluate the potential of 4-imidazolidinone cyclic peptides for biological applications, the proteolytic stability of a cyclic peptide cyc(AVGPFEY) (SEQ ID NO: 13) 2a in comparison with its linear counterpart AVGPFEY (SEQ ID NO: 13) was examiner. Linear peptide AVGPFEY ID NO: 13) and cyclic peptide cyc(AVGPFEY) (SEQ ID NO: 13) 2a were incubated with chymotrypsin, which hydrolyzes peptide bonds at the C-terminal side of aromatic residues, such as Phe.

A short description of data set [3]: CyClick: N-terminal amine condenses with side-chain or C-terminal aldehyde (or ketone) to a cyclic imine, then the residue-2 amide N attacks to give a 4-imidazolidinone; DMAP (7 equiv). The note with it: H2O/DMF 1:1, 5.0 mM, 25.0 °C.
Data set [4] can be described thus: Stability of 4-imidazolidinone cyclic peptide under different pH conditions (hydrolysis/degradation, HPLC). To be noted: 10 mM phosphate buffer, pH 3.5, 5.5, 7.5, 8.5, 10.5, room temperature, up to 24 h. It is filed as physicochemical. On the procedure: FIG. 22, comprising FIG. 22A through FIG. 22D, depicts representative effects of 4-imidazolidinone in cyclic peptides. FIG. 22A depicts representative VT-NMR spectra of head-to-tail 4-imidazolidinone cyclic peptide 4a in aqueous solutions. FIG. 22B depicts representative turn structure of 4-imidazolidinone cyclic peptide 4a obtained by running ForceGen (Jain A N et al., 2019, J. Comput.-Aided Mol. Des., 33:531) with NMR constraints. […] Cyclic peptide cyc(NVGPFEY) (SEQ ID NO: 19) 2f (2.5 mg) was dissolved in H2O to form a stock solution (500 μL, conc. 7 mM). 100 μL of the stock was added to 400 μL of sodium phosphate buffer (10 mM) at the following pH values: 3.5, 5.5, 7.5, 8.5, 10.5 (total conc. 1.4 mM). The reactions were shaken at room temperature. Samples were analyzed by injecting them in HPLC after regular intervals of time. […] FIG. 22D depicts representative proteolytic stability of 4-imidazolidinone cyclic peptide 2a as compared to its linear counterpart.
The stability of cyclic peptides is a major concern, for pharmaceutical applications. To evaluate the stability of a 4-imidazolidinone cyclic peptide, cyclic peptide cyc(NVGPFEY) (SEQ ID NO: 19) 2f was incubated under different pH conditions.

The values below come from patent US12043674B2, “Synthetic cyclic peptides and methods of preparation and use thereof” (Auburn University, priority 2020, dated 2024).

“Also recorded” adds a separate entry of the source. Ends that are not written are not given here.

Regarding `CC(C)[C@H]1C(=O)NCC(=O)N2CCC[C@H]2C(=O)N[C@@H](Cc2ccccc2)C(=O)N[C@H](C(=O)N[C@@H](Cc2ccc(O)cc2)C(N)=O)CCC(=O)NC[C@@H]2N[C@@H](C)C(=O)N21` [2a, cyc(Ala-Val-Gly-Pro-Phe-Glu)Tyr], the metabolised at 24 h, 1.5 mM in data set [1] stood at 20%. For the same compound, in data set [2], the remaining at 5 min, 1.5 mM came to 100%; the remaining at 0.25 h, 1.5 mM turned out to be 100%; the remaining at 0.5 h, 1.5 mM worked out at 100%; the remaining at 0.75 h, 1.5 mM stood at 100%. Moreover, in data set [2], the remaining at 1 h, 1.5 mM came out at 100%; the remaining at 1.5 h, 1.5 mM came to 100%; the remaining at 2 h, 1.5 mM came to 100%; the remaining at 8 h, 1.5 mM turned out to be 91.9%. The compound also gave an enzyme degradation studies, peptide at time point in data set [2] of 100%.

In the case of `C[C@@H]1NC2[C@H](C)NC(=O)[C@@H]3CCCN3C(=O)CNC(=O)[C@H](Cc3ccccc3)N2C1=O` (stereo partly drawn) [H-Ala-Phe-Gly-Pro-Ala-H (C-terminal aldehyde)], in data set [3] (from C[C@H](N)C(=O)N[C@@H](Cc1ccccc1)C(=O)NCC(=O)N1CCC[C@H]1C(=O)N[C@@H](C)C=O, 12-membered ring), the ring closure, conversion by HPLC came to 71%.

Take `C[C@@H]1N=CCNC(=O)CC[C@@H](C(=O)N[C@@H](Cc2ccc(O)cc2)C(N)=O)NC(=O)[C@H](Cc2ccccc2)NC(=O)[C@H](C)NC(=O)CNC(=O)[C@@H]2CCCN2C1=O` [H-Ala-Pro-Gly-Ala-Phe-Glu(NH-CH2-CHO)-Tyr-NH2]: in data set [3] (from C[C@H](N)C(=O)N1CCC[C@H]1C(=O)NCC(=O)N[C@@H](C)C(=O)N[C@@H](Cc1ccccc1)C(=O)N[C@@H](CCC(=O)NCC=O)C(=O)N[C@@H](Cc1ccc(O)cc1)C(N)=O, 20-membered ring), the ring closure, conversion by HPLC stood at 0%.

For `CC(C)[C@H]1C(=O)NCC(=O)N2CCC[C@H]2C(=O)N[C@@H](Cc2ccccc2)C(=O)N[C@H](C(=O)N[C@@H](Cc2ccc(O)cc2)C(N)=O)CCC(=O)NCC2N[C@@H](C)C(=O)N21` (stereo partly drawn) [H-Ala-Val-Gly-Pro-Phe-Glu(NH-CH2-CHO)-Tyr-NH2], the ring closure, conversion by HPLC in data set [3] (from CC(C)[C@H](NC(=O)[C@H](C)N)C(=O)NCC(=O)N1CCC[C@H]1C(=O)N[C@@H](Cc1ccccc1)C(=O)N[C@@H](CCC(=O)NCC=O)C(=O)N[C@@H](Cc1ccc(O)cc1)C(N)=O, 20-membered ring, 8.0 h) came out at 99%.

Turning to `CC(C)[C@H]1C(=O)NCC(=O)N2CCC[C@H]2C(=O)N[C@@H](Cc2ccccc2)C(=O)N[C@H](C(=O)N[C@@H](Cc2ccc(O)cc2)C(N)=O)CCCCNC(=O)CCC2(C)N[C@@H](C)C(=O)N12` (stereo partly drawn) [H-Ala-Val-Gly-Pro-Phe-Lys(levulinoyl)-Tyr-NH2], in data set [3] (from CC(=O)CCC(=O)NCCCC[C@H](NC(=O)[C@H](Cc1ccccc1)NC(=O)[C@@H]1CCCN1C(=O)CNC(=O)[C@@H](NC(=O)[C@H](C)N)C(C)C)C(=O)N[C@@H](Cc1ccc(O)cc1)C(N)=O, 23-membered ring), the ring closure, conversion by HPLC came to 36%.

In the case of `NCCCC[C@H](NC(=O)[C@@H]1CCC(=O)NCC2N[C@@H](CC(N)=O)C(=O)N2[C@@H](Cc2ccccc2)C(=O)N2CCC[C@H]2C(=O)N[C@@H](Cc2ccccc2)C(=O)N1)C(N)=O` (stereo partly drawn) [H-Asn-Phe-Pro-Phe-Glu(NH-CH2-CHO)-Lys-NH2], in data set [3] (from NCCCC[C@H](NC(=O)[C@H](CCC(=O)NCC=O)NC(=O)[C@H](Cc1ccccc1)NC(=O)[C@@H]1CCCN1C(=O)[C@H](Cc1ccccc1)NC(=O)[C@@H](N)CC(N)=O)C(N)=O, 17-membered ring), the ring closure, conversion by HPLC is 70%.

Regarding `CC(C)[C@H]1C(=O)NCC(=O)N2CCC[C@H]2C(=O)N[C@@H](Cc2ccccc2)C(=O)N[C@H](C(=O)N[C@@H](Cc2ccc(O)cc2)C(N)=O)CCC(=O)NCC2N[C@@H](CC(N)=O)C(=O)N21` (stereo partly drawn) [H-Asn-Val-Gly-Pro-Phe-Glu(NH-CH2-CHO)-Tyr-NH2], the ring closure, conversion by HPLC in data set [3] (from CC(C)[C@H](NC(=O)[C@@H](N)CC(N)=O)C(=O)NCC(=O)N1CCC[C@H]1C(=O)N[C@@H](Cc1ccccc1)C(=O)N[C@@H](CCC(=O)NCC=O)C(=O)N[C@@H](Cc1ccc(O)cc1)C(N)=O, 20-membered ring, 16.0 h) amounted to 85%.

For `CC(C)[C@H]1C(=O)NCC(=O)N2CCC[C@H]2C(=O)N[C@@H](Cc2ccccc2)C(=O)N[C@H](C(=O)N[C@@H](Cc2ccc(O)cc2)C(N)=O)CCC(=O)NCC2N[C@@H](CCCCN)C(=O)N21` (stereo partly drawn) [H-Lys-Val-Gly-Pro-Phe-Glu(NH-CH2-CHO)-Tyr-NH2], the ring closure, conversion by HPLC in data set [3] (from CC(C)[C@H](NC(=O)[C@@H](N)CCCCN)C(=O)NCC(=O)N1CCC[C@H]1C(=O)N[C@@H](Cc1ccccc1)C(=O)N[C@@H](CCC(=O)NCC=O)C(=O)N[C@@H](Cc1ccc(O)cc1)C(N)=O, 20-membered ring) came out at 84%.

In the case of `C[C@@H]1NC(=O)[C@@H]2CCCN2C(=O)CN2C(=O)[C@H](Cc3ccccc3)NC12` (stereo partly drawn) [H-Phe-Gly-Pro-Ala-H (C-terminal aldehyde)], the ring closure, conversion by HPLC in data set [3] (from C[C@@H](C=O)NC(=O)[C@@H]1CCCN1C(=O)CNC(=O)[C@@H](N)Cc1ccccc1, 9-membered ring, 24.0 h) turned out to be 0%.

With `CC(C)[C@H]1C(=O)NCC(=O)N2CCC[C@H]2C(=O)N[C@@H](Cc2ccccc2)C(=O)N[C@H](C(=O)N[C@@H](Cc2ccc(O)cc2)C(N)=O)CCC(=O)NCC2N[C@@H](CO)C(=O)N21` (stereo partly drawn) [H-Ser-Val-Gly-Pro-Phe-Glu(NH-CH2-CHO)-Tyr-NH2], the ring closure, conversion by HPLC in data set [3] (from CC(C)[C@H](NC(=O)[C@@H](N)CO)C(=O)NCC(=O)N1CCC[C@H]1C(=O)N[C@@H](Cc1ccccc1)C(=O)N[C@@H](CCC(=O)NCC=O)C(=O)N[C@@H](Cc1ccc(O)cc1)C(N)=O, 20-membered ring) came to 100%.

On to AVGPFEY-NH2 [AVGPFEY], for which, in data set [2] (HPLC and MS analysis), the “time until fully consumed in the presence of chymotrypsin” value is 90 min. In data set [2], the remaining at 5 min, 1.5 mM was determined as 82.9%; the remaining at 0.25 h, 1.5 mM amounted to 66.3%; the remaining at 0.5 h, 1.5 mM was determined as 38.6%; the remaining at 0.75 h, 1.5 mM is 20.2%. Also, in data set [2], the remaining at 1 h, 1.5 mM worked out at 10.9%; the remaining at 1.5 h, 1.5 mM is 7.7%; the remaining at 2 h, 1.5 mM was 0%; the remaining at 8 h, 1.5 mM was 0%. Moreover, the enzyme degradation studies, peptide at time point in data set [2] is 100%. Also, in data set [2] (chymotrypsin in Tris buffer, pH 7.5, HPLC and MS analysis, read-out: half-life in the presence of chymotrypsin), the half-life at 1.5 mM was determined as 20 min.

As for “cyc(Asn-Val-Gly-Pro-Phe-Glu)-Tyr (NVGPFEY; not fully specified (residue 6, bridges); printed as cyc(Asn-Val-Gly-Pro-Phe-Glu)-Tyr; also: Glu side-chain aldehyde, bridge at N, other end not in the chain) [2f]”, in data set [4], the “resistance to hydrolysis/degradation under different pH conditions” value is given as “remained unchanged; also recorded: No degradation”.

For orientation: half-life means how long it takes for the measured level to halve.
